Measurements as given in patent publication US12144795B2, “Cannabidiol compositions having modified cannabinoid profiles” (priority 2018, dated 2024).

Experiments:
[1] = HPLC method quantifying low levels of D9-THC in stored cannabidiol samples; assay type: physicochemical
Experimental: An analytical method using HPLC was developed to determine low levels of delta-9-tetrahydrocannabinol in cannabidiol samples. A Waters XBridge C18 3.5 μm, 3.0×150 mm column was employed and operated at a temperature of 30° C., UV wavelength of 225 nm, and injection size of 20 μL. Mobile Phase A was 0.02% (v/v) acetic acid in H2O, while mobile phase B was 0.02% (v/v) acetic acid in acetonitrile (ACN).
An aliquot of 0.5 mL of a D9-THC reference standard (Cerilliant, 1.0 mg/mL MeOH solution) was diluted in a 500-mL volumetric flask using sample diluent (70/30 Acetonitrile/H2O, v/v). The D9-THC concentration was 0.001 mg/mL in the standard stock solution, which corresponded with 200 ppm of D9-THC as compared to the CBD sample solution (nominal CBD concentration was 5.0 mg/mL).
An Aliquot of 5 mL of THC Stock Standard Solution was diluted in a 100-mL volumetric flask using the sample diluent. The D9-THC concentration was 0.00005 mg/mL in the working standard solution, corresponding with 10 ppm of D9-THC as compared to the CBD sample solution.
About 50 mg of cannabidiol sample was weighed into a 10-mL volumetric flask. The volumetric flask was diluted to volume using sample diluent and mixed well.
A minimum of 6 working standard solutions were injected prior to the sample set. Furthermore, a maximum of 6 injections of CBD sample were injected between bracketing working standard solutions.
The amount of THC in each sample was calculated using the following
For reference, each chromatogram in FIG. 6A through FIG. 6F is shown against a 10 ppm THC working standard. For samples 1, 2, and 3, roughly 50.28 mg, 50.77 mg, and 55.60 mg material was used.

[2] = Quantitative thermodynamic solubility determination at ambient temperature, evaporated solids analyzed by XRPD; assay type: physicochemical; conditions: for solubility: thermodynamic from solid, ambient temperature
Experimental: A quantitative thermodynamic solubility determination was performed on crude cannabidiol obtained via Protocol 2 to aid in the selection of solvents for crystallization experiments. The clear solutions obtained from each solubility determination experiment were evaporated and the obtained solids were analyzed by XRPD.
When the material precipitated as a solid, it was classified as Form A. However, in 11 experiments, the material obtained after evaporation was oil-like in appearance and could not be analyzed by XRPD. When no XRPD record was generated, the field was defined as “Not Applicable” (N/A).

C=C(C)[C@@H]1CCC(C)=C[C@H]1c1c(O)cc(CCCCC)cc1O [Sample 4, Cannabidiol]
8.3 ppm: Result (D9-THC in ppm) ([1]; after storage at −16° C. for two years)

C=C(C)[C@@H]1CCC(C)=C[C@H]1c1c(O)cc(CCCCC)cc1O [Sample 3, Cannabidiol]
5.1 ppm: Result (D9-THC in ppm) ([1]; after storage for one month at room temperature (25° C.))

C=C(C)[C@@H]1CCC(C)=C[C@H]1c1c(O)cc(CCCCC)cc1O [crude cannabidiol, cannabidiol]
> 100 mg/mL: solubility ([2]; organic solvent or mixture, 1,2-Dimethoxyethane) | solubility ([2]; organic solvent or mixture, 1-Propanol) | solubility ([2]; organic solvent or mixture, 1.4-Dioxane) | solubility ([2]; organic solvent or mixture, 2-Butanone) | solubility ([2]; organic solvent or mixture, 2-propanol) | solubility ([2]; organic solvent or mixture, Acetone) | solubility ([2]; organic solvent or mixture, Acetonitrile) | solubility ([2]; organic solvent or mixture, Anisole) | solubility ([2]; organic solvent or mixture, Chloroform) | solubility ([2]; organic solvent or mixture, Cumene) | solubility ([2]; organic solvent or mixture, Cyclohexane) | solubility ([2]; organic solvent or mixture, Dichloromethane) | solubility ([2]; organic solvent or mixture, Diethyl ether) | solubility ([2]; organic solvent or mixture, Ethanol) | solubility ([2]; organic solvent or mixture, Ethyl Acetate) | solubility ([2]; organic solvent or mixture, Ethyl Formate) | solubility ([2]; organic solvent or mixture, Isobutanol) | solubility ([2]; organic solvent or mixture, Isopropyl acetate) | solubility ([2]; organic solvent or mixture, Methanol) | solubility ([2]; organic solvent or mixture, Tert-Butyl methyl ether) | solubility ([2]; organic solvent or mixture, Tetrahydrofuran) | solubility ([2]; organic solvent or mixture, Toluene) | solubility ([2]; organic solvent or mixture, p-Xylene)
< 0.13 mg/mL: solubility ([2]; Water)
Form A: XRPD ([2]; solid after evaporation of 1.4-Dioxane solution) | XRPD ([2]; solid after evaporation of 2-Butanone solution) | XRPD ([2]; solid after evaporation of Chloroform solution) | XRPD ([2]; solid after evaporation of Cyclohexane solution) | XRPD ([2]; solid after evaporation of Dichloromethane solution) | XRPD ([2]; solid after evaporation of Diethyl ether solution) | XRPD ([2]; solid after evaporation of Ethyl Acetate solution) | XRPD ([2]; solid after evaporation of Ethyl Formate solution) | XRPD ([2]; solid after evaporation of Heptane solution) | XRPD ([2]; solid after evaporation of Isopropyl acetate solution) | XRPD ([2]; solid after evaporation of Tert-Butyl methyl ether solution) | XRPD ([2]; solid after evaporation of Tetrahydrofuran solution) | XRPD ([2]; solid after evaporation of Toluene solution) | XRPD ([2]; solid after evaporation of Water solution)
64.6 mg/mL: solubility ([2]; organic solvent or mixture, Heptane)
